Measured values published in patent US12037354B2, “Cyclic pantetheine derivatives and uses thereof” (VectivBio Comet AG, priority 2018, dated 2024).

Tested on: primary culture of rat embryo mesencephalic cells (microglia, astrocytes and neurons)
Assay: Neuroprotection against LPS damage (NO, TNF-α, IL-1β release, tyrosine hydroxylase positive neurons), Example 848
Format: cell-based
Details: 10 uM; for % reversion of NO release from neurons: after 5 days of LPS exposure
Method: Drug preparation. […] The stock solutions will be prepared 1000× the concentration in 100% DMSO. The final concentration of the vehicle (DMSO) is set at 0.1%.
Test animals. Pregnant Wistar rats (Janvier; France) are used for the study. They are group-housed and maintained in a room with controlled temperature (21-22° C.) and a reversed light-dark cycle (12 h/12 h; lights on: 17:30-05:30; lights off: 05:30-17:30) with food and water available ad libitum.
The protocol is performed in 3 independent cultures. For each culture, each condition is performed in sextuplicate.
Female rat of 15 days gestation is killed by cervical dislocation. Fetuses are removed from the uterus and their brains are harvested and placed in ice-cold medium (Leibovitz's L15 medium, Gibco). Only ventral mesencephalic flexure is used for the cell preparations. The midbrain is dissociated by trypsinization. The reaction is stopped, and the suspension is triturated and centrifuged. The pellet of dissociated cells is resuspended in culture medium consisted of DMEM-F12 (Gibco), containing 10% FBS (ATCC), 10% Horse serum (Gibco) and 2 mM L-glutamine (Gibco). Viable cells are counted and seeded on 96-well plates, precoated with poly-L-lysine. Cells are maintained in a humidified incubator at 37° C. in 5% CO2-95% air atmosphere. Half of the medium is changed on day 2 and day 5.
Treatment. On day 7, culture media are removed and replaced by new medium consisting of DMEM-F12 (Gibco) supplemented with 2% FBS (ATCC), 2% Horse serum (Gibco) and 2 mM L-glutamine (Gibco) and containing vehicle or test substances. After 1-hour exposure, LPS at 10 ng/ml is added and exposure further continued for 24 hours or 5 days period.
Inflammatory response measurement and neuronal death evaluation. NO production is measured in the media 24 h and 5 days after LPS exposure using the Griess reagent kit (Molecular Probes). The Griess reagent Assay is a colorimetric reaction assay which measures the conversion of a sulfanilic salt into an azo dye product by nitrite. Visible wavelength absorbance data is collected using a 96-well plate reader at 570 nm (Multiskan EX, Thermo Fisher, France).
IL-10 and TNF-α release are measured in the media 24 h after LPS exposure using the ELISA development kit (PeproTech). The ELISA plate, previously coated with anti-IL-10 or anti-TNF-α antibody at 1 μg/ml, is incubated 1 h with PBS containing 1% of BSA (bovine serum albumin). […] Visible wavelength absorbance data is collected using a 96-well plate reader at 405 nm with wavelength correction set at 650 nm (Multiskan EX, Thermo Fisher, France). […]
Statistical Analysis. The drug-induced effect on NO and cytokines is calculated by setting the response of the LPS-stimulated control as 100%. […]

With `CC(=O)CC(=O)SCCNC(=O)CCNC(=O)[C@@H]1OP(=O)(O)OCC1(C)C` [Compound 42] the “% reversion of TH positive neurons” value (after 5 days of LPS exposure (Example 949)) was at least 15%, the “% reversion of TH positive neurons” value (after 5 days of LPS exposure (Example 950)) was at least 50% and the “% reversion of NO release from neurons” value (compared to LPS induction alone) was at least 10%. For the same compound, the “% reversion of NO release from neurons” value (LPS-induced NO release) was at least 10%.
